Measurements as given in article PMC10281575, “PfCRT mutations conferring piperaquine resistance in falciparum malaria shape the kinetics of quinoline drug binding and transport” (PLOS Pathogens, 2023).
Substitutions are numbered along the chain they refer to. Where “and” joins values, the source holds several entries; their conditions need not be identical. Equal values may be shown once.

Legend:
[1] = system: Dd2^Dd2crt parasites; set-up: method as in Okombo et al. (2022); details: ref Okombo et al. (2022); cited from earlier work
[2] = system: Dd2^3D7crt parasites; set-up: method as in Okombo et al. (2022); details: ref Okombo et al. (2022); cited from earlier work
[3] = target: T1, PfCRT^Dd2_V141A (Plasmodium falciparum, UniProt Q8IBZ9, A220S/I356T/K76T/M74I/N326S/N75E/Q271E/R371I/V141A); assay: PfCRT-mediated CQ transport in oocytes expressing PfCRT^Dd2_V141A; assay type: cell-based; details: S6 Fig; per biological replicate
T1 construct: expressed in transfected cells; host or cells: Xenopus laevis oocytes
T1 sequence (Q8IBZ9 1-424 M74I/N75E/K76T/V141A/A220S/Q271E/N326S/I356T/R371I): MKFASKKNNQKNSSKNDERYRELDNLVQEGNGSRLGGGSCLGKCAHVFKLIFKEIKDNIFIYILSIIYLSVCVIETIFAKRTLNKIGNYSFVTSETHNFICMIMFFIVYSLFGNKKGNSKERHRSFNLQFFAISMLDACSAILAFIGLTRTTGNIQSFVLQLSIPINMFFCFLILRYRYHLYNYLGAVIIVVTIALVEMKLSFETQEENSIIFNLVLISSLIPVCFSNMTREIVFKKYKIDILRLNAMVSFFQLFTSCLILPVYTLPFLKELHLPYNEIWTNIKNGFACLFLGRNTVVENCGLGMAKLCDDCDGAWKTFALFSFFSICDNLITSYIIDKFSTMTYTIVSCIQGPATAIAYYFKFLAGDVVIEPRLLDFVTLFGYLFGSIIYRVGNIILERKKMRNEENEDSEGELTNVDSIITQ
Excerpt: (§1) The docking results reflect the differences in the experimentally measured affinities of the two compounds for PfCRT^Dd2, with CQ having less favorable docking scores compared to PPQ (S1 Table). […] In this pose, CQ forms polar contacts via the two positively charged nitrogens: the nitrogen of the diethylamino tail makes a salt bridge with E75 on TM1 and the nitrogen of the 4-amminoquinoline ring makes a hydrogen bond with S257 on TM7. Hydrophobic contacts are established by the quinoline ring with I260, V141, and F145.
(§2) Drug transport assays were performed as previously described. Briefly, measurements of radiolabeled drug uptake were made over 1 h, unless otherwise specified. […] Where specified, one or more unlabeled drugs were also present at the indicated concentrations. […] The radioactivity in the sample was measured using a liquid scintillation analyser Tri-Carb 4910 TR (PerkinElmer). Water-injected oocytes were analyzed in parallel as a negative control. The buffer from each condition was measured in duplicate in parallel to each experiment to transform counts per minute into pmol of drug. Drug uptake attributable to PfCRT was determined by subtracting the background uptake from water-injected oocytes from that of PfCRT-expressing oocytes. […]

[4] = target: T2, PfCRT^Dd2_S257A (Plasmodium falciparum, UniProt Q8IBZ9, A220S/I356T/K76T/M74I/N326S/N75E/Q271E/R371I/S257A); assay: PfCRT-mediated CQ transport in oocytes expressing PfCRT^Dd2_S257A; assay type: cell-based; details: S6 Fig; per biological replicate
T2 construct: expressed in transfected cells; host or cells: Xenopus laevis oocytes
T2 sequence (Q8IBZ9 1-424 M74I/N75E/K76T/A220S/S257A/Q271E/N326S/I356T/R371I): T1 sequence (Q8IBZ9 1-424 M74I/N75E/K76T/V141A/A220S/Q271E/N326S/I356T/R371I) with A141V, S257A
Excerpt: as §1, §2

[5] = target: T3, PfCRT^Dd2_I260A (Plasmodium falciparum, UniProt Q8IBZ9, A220S/I260A/I356T/K76T/M74I/N326S/N75E/Q271E/R371I); assay: PfCRT-mediated CQ transport in oocytes expressing PfCRT^Dd2_I260A; assay type: cell-based; details: S6 Fig; per biological replicate
T3 construct: expressed in transfected cells; host or cells: Xenopus laevis oocytes
T3 sequence (Q8IBZ9 1-424 M74I/N75E/K76T/A220S/I260A/Q271E/N326S/I356T/R371I): T1 sequence (Q8IBZ9 1-424 M74I/N75E/K76T/V141A/A220S/Q271E/N326S/I356T/R371I) with A141V, I260A
Excerpt: as §1, §2

SMILES: Clc1ccc2c(N3CCN(CCCN4CCN(c5ccnc6cc(Cl)ccc56)CC4)CC3)ccnc2c1 [PPQ, piperaquine]
- drug accumulation ratio [1]: 1900 fold
- drug accumulation ratio [2]: 2000 fold

SMILES: CCN(CC)CCCC(C)Nc1ccnc2cc(Cl)ccc12 (centres unmarked) [CQ, chloroquine]
- PfCRTDd2_V141A-mediated CQ transport [3]: 1.080 pmol oocyte-1 h-1 and 0.460 pmol oocyte-1 h-1 and 1.360 pmol oocyte-1 h-1
- PfCRTDd2_S257A-mediated CQ transport [4]: 1.610 pmol oocyte-1 h-1 and 1.360 pmol oocyte-1 h-1 and 1.980 pmol oocyte-1 h-1
- PfCRTDd2_I260A-mediated CQ transport [5]: 2.260 pmol oocyte-1 h-1 and 2.400 pmol oocyte-1 h-1 and 3.540 pmol oocyte-1 h-1
